{
  "source": "paper PMC12748989",
  "about": "(Nature Communications, 2025)",
  "key": {"PBMC": {"tested_on": "PBMC", "details": "12.5 µM"}},
  "data": [
    {"smiles": "CC[C@H](C)[C@H](NC(=O)[C@H](CCCCN)NC(=O)[C@H](CCCCN)NC(=O)[C@H](C)NC(=O)[C@H](CC(C)C)NC(=O)[C@H](C)NC(=O)[C@H](C)NC(=O)[C@H](CC(C)C)NC(=O)[C@H](C)NC(=O)[C@H](CCCCN)NC(=O)[C@H](CC(C)C)NC(=O)[C@H](CC(N)=O)NC(=O)[C@@H](N)[C@@H](C)O)C(=O)N[C@@H](CC(C)C)C(N)=O", "note": "[T1]", "values": [
      {"measurement": "Average (percentage cell inhibition), Dmastoparan MDA-MB231 12.5uM", "setting": "MDA-MB-231 cells", "value": 37.2219, "unit": "%"},
      {"measurement": "Average (percentage cell inhibition), Mastoparan PBMC", "setting": "PBMC", "value": 14.7113, "unit": "%"}
    ]},
    {"smiles": "CC[C@H](C)[C@H](N)C(=O)N[C@@H](CC(N)=O)C(=O)N[C@@H](CC(C)C)C(=O)N[C@@H](CCCCN)C(=O)N[C@@H](C)C(=O)N[C@@H](CC(C)C)C(=O)N[C@@H](C)C(=O)N[C@@H](C)C(=O)N[C@@H](CC(C)C)C(=O)N[C@@H](C)C(=O)N[C@@H](CCCCN)C(=O)N[C@@H](CCCCN)C(=O)N[C@@H](CCC(=O)O)C(=O)N[C@@H](CC(C)C)C(N)=O", "note": "[E13]", "values": [
      {"measurement": "Average (percentage cell inhibition), Dmastoparan MDA-MB231 12.5uM", "setting": "MDA-MB-231 cells", "value": 42.4043, "unit": "%"},
      {"measurement": "Average (percentage cell inhibition), Mastoparan PBMC", "setting": "PBMC", "value": -2.907, "unit": "%"}
    ]},
    {"smiles": "CC[C@H](C)[C@H](N)C(=O)N[C@@H](CC(N)=O)C(=O)N[C@@H](CC(C)C)C(=O)N[C@@H](CCCCN)C(=O)N[C@@H](C)C(=O)N[C@@H](CC(C)C)C(=O)N[C@@H](C)C(=O)N[C@@H](C)C(=O)N[C@@H](CC(C)C)C(=O)N[C@@H](C)C(=O)N[C@@H](CCCCN)C(=O)N[C@@H](Cc1c[nH]cn1)C(=O)N[C@H](C(=O)N[C@@H](CC(C)C)C(N)=O)[C@@H](C)CC", "note": "[H12]", "values": [
      {"measurement": "Average (percentage cell inhibition), Dmastoparan MDA-MB231 12.5uM", "setting": "MDA-MB-231 cells", "value": 31.16, "unit": "%"},
      {"measurement": "Average (percentage cell inhibition), Mastoparan PBMC", "setting": "PBMC", "value": 0.5315, "unit": "%"}
    ]},
    {"smiles": "CC[C@H](C)[C@H](N)C(=O)N[C@@H](CC(N)=O)C(=O)N[C@@H](CC(C)C)C(=O)NCC(=O)N[C@@H](C)C(=O)N[C@@H](CC(C)C)C(=O)N[C@@H](C)C(=O)N[C@@H](C)C(=O)N[C@@H](CC(C)C)C(=O)N[C@@H](C)C(=O)N[C@@H](CCCCN)C(=O)N[C@@H](CCCCN)C(=O)N[C@H](C(=O)N[C@@H](CC(C)C)C(N)=O)[C@@H](C)CC", "note": "[G4]", "values": [
      {"measurement": "Average (percentage cell inhibition), Dmastoparan MDA-MB231 12.5uM", "setting": "MDA-MB-231 cells", "value": 39.0682, "unit": "%"},
      {"measurement": "Average (percentage cell inhibition), Mastoparan PBMC", "setting": "PBMC", "value": 15.8704, "unit": "%"}
    ]},
    {"smiles": "CC[C@H](C)[C@H](N)C(=O)N[C@@H](CC(N)=O)C(=O)N[C@@H](CC(C)C)C(=O)N[C@@H](CCCCN)C(=O)N[C@@H](C)C(=O)N[C@@H](CC(C)C)C(=O)N[C@@H](C)C(=O)N[C@@H](C)C(=O)N[C@@H](CC(C)C)C(=O)N[C@@H](CCCNC(=N)N)C(=O)N[C@@H](CCCCN)C(=O)N[C@@H](CCCCN)C(=O)N[C@H](C(=O)N[C@@H](CC(C)C)C(N)=O)[C@@H](C)CC", "note": "[R10]", "values": [
      {"measurement": "Average (percentage cell inhibition), Dmastoparan MDA-MB231 12.5uM", "setting": "MDA-MB-231 cells", "value": 11.5132, "unit": "%"},
      {"measurement": "Average (percentage cell inhibition), Mastoparan PBMC", "setting": "PBMC", "value": 5.821, "unit": "%"}
    ]},
    {"smiles": "CC[C@H](C)[C@H](NC(=O)[C@H](CCCCN)NC(=O)[C@H](CCCCN)NC(=O)[C@H](C)NC(=O)[C@H](CC(C)C)NC(=O)[C@H](C)NC(=O)[C@H](C)NC(=O)[C@H](CC(C)C)NC(=O)[C@H](C)NC(=O)[C@H](CCCCN)NC(=O)[C@H](CC(C)C)NC(=O)[C@H](CC(N)=O)NC(=O)[C@@H](N)CCCCN)C(=O)N[C@@H](CC(C)C)C(N)=O", "note": "[K1]", "values": [
      {"measurement": "Average (percentage cell inhibition), Dmastoparan MDA-MB231 12.5uM", "setting": "MDA-MB-231 cells", "value": 35.9182, "unit": "%"},
      {"measurement": "Average (percentage cell inhibition), Mastoparan PBMC", "setting": "PBMC", "value": 1.227, "unit": "%"}
    ]},
    {"smiles": "CC[C@H](C)[C@H](N)C(=O)N[C@@H](CC(N)=O)C(=O)N[C@@H](CC(C)C)C(=O)N[C@@H](CCCCN)C(=O)N[C@@H](C)C(=O)N[C@@H](CC(C)C)C(=O)N[C@@H](C)C(=O)N[C@@H](CCC(=O)O)C(=O)N[C@@H](CC(C)C)C(=O)N[C@@H](C)C(=O)N[C@@H](CCCCN)C(=O)N[C@@H](CCCCN)C(=O)N[C@H](C(=O)N[C@@H](CC(C)C)C(N)=O)[C@@H](C)CC", "note": "[E8]", "values": [
      {"measurement": "Average (percentage cell inhibition), Dmastoparan MDA-MB231 12.5uM", "setting": "MDA-MB-231 cells", "value": 39.5903, "unit": "%"},
      {"measurement": "Average (percentage cell inhibition), Mastoparan PBMC", "setting": "PBMC", "value": 13.1597, "unit": "%"}
    ]},
    {"smiles": "CC[C@H](C)[C@H](NC(=O)[C@H](CCCCN)NC(=O)[C@H](CCCCN)NC(=O)[C@H](C)NC(=O)[C@H](CC(C)C)NC(=O)[C@H](C)NC(=O)[C@H](C)NC(=O)[C@H](CC(C)C)NC(=O)[C@H](C)NC(=O)[C@H](CCCCN)NC(=O)[C@H](CC(C)C)NC(=O)[C@H](CC(N)=O)NC(=O)[C@@H](N)CC(C)C)C(=O)N[C@@H](CC(C)C)C(N)=O", "note": "[L1]", "values": [
      {"measurement": "Average (percentage cell inhibition), Dmastoparan MDA-MB231 12.5uM", "setting": "MDA-MB-231 cells", "value": 57.5292, "unit": "%"},
      {"measurement": "Average (percentage cell inhibition), Mastoparan PBMC", "setting": "PBMC", "value": 20.4049, "unit": "%"}
    ]},
    {"smiles": "CC[C@H](C)[C@H](N)C(=O)N[C@@H](CC(N)=O)C(=O)N[C@@H](CC(C)C)C(=O)N[C@@H](CCCCN)C(=O)N[C@@H](C)C(=O)N[C@@H](CC(C)C)C(=O)N[C@@H](C)C(=O)N[C@@H](CC(C)C)C(=O)N[C@@H](CC(C)C)C(=O)N[C@@H](C)C(=O)N[C@@H](CCCCN)C(=O)N[C@@H](CCCCN)C(=O)N[C@H](C(=O)N[C@@H](CC(C)C)C(N)=O)[C@@H](C)CC", "note": "[L8]", "values": [
      {"measurement": "Average (percentage cell inhibition), Dmastoparan MDA-MB231 12.5uM", "setting": "MDA-MB-231 cells", "value": 38.4504, "unit": "%"},
      {"measurement": "Average (percentage cell inhibition), Mastoparan PBMC", "setting": "PBMC", "value": 16.9354, "unit": "%"}
    ]},
    {"smiles": "CC[C@H](C)[C@H](N)C(=O)N[C@@H](CC(N)=O)C(=O)N[C@@H](CC(C)C)C(=O)N[C@@H](CCCCN)C(=O)N[C@@H](C)C(=O)N[C@@H](CC(C)C)C(=O)N[C@@H](C)C(=O)N[C@@H](CCCNC(=N)N)C(=O)N[C@@H](CC(C)C)C(=O)N[C@@H](C)C(=O)N[C@@H](CCCCN)C(=O)N[C@@H](CCCCN)C(=O)N[C@H](C(=O)N[C@@H](CC(C)C)C(N)=O)[C@@H](C)CC", "note": "[R8]", "values": [
      {"measurement": "Average (percentage cell inhibition), Dmastoparan MDA-MB231 12.5uM", "setting": "MDA-MB-231 cells", "value": 42.355, "unit": "%"},
      {"measurement": "Average (percentage cell inhibition), Mastoparan PBMC", "setting": "PBMC", "value": 4.899, "unit": "%"}
    ]},
    {"smiles": "CC[C@H](C)[C@H](N)C(=O)N[C@@H](CC(N)=O)C(=O)N[C@@H](CC(C)C)C(=O)N[C@@H](CCCCN)C(=O)N[C@@H](C)C(=O)N[C@@H](CC(C)C)C(=O)N[C@@H](C)C(=O)N[C@@H](C)C(=O)N[C@@H](CC(C)C)C(=O)N[C@@H](C)C(=O)N[C@@H](CCC(N)=O)C(=O)N[C@@H](CCCCN)C(=O)N[C@H](C(=O)N[C@@H](CC(C)C)C(N)=O)[C@@H](C)CC", "note": "[Q11]", "values": [
      {"measurement": "Average (percentage cell inhibition), Dmastoparan MDA-MB231 12.5uM", "setting": "MDA-MB-231 cells", "value": 41.2471, "unit": "%"},
      {"measurement": "Average (percentage cell inhibition), Mastoparan PBMC", "setting": "PBMC", "value": 14.9552, "unit": "%"}
    ]},
    {"smiles": "CC[C@H](C)[C@H](N)C(=O)N[C@@H](CC(N)=O)C(=O)N[C@@H](CC(C)C)C(=O)N[C@@H](CCCCN)C(=O)N[C@@H](C)C(=O)N[C@@H](CC(C)C)C(=O)N[C@@H](C)C(=O)N[C@@H](C)C(=O)N[C@@H](CC(C)C)C(=O)N[C@@H](C)C(=O)N[C@@H](CCCCN)C(=O)N[C@@H](CCCCN)C(=O)N[C@H](C(=O)N[C@@H](CC(C)C)C(N)=O)C(C)C", "note": "[V13]", "values": [
      {"measurement": "Average (percentage cell inhibition), Dmastoparan MDA-MB231 12.5uM", "setting": "MDA-MB-231 cells", "value": 38.0334, "unit": "%"},
      {"measurement": "Average (percentage cell inhibition), Mastoparan PBMC", "setting": "PBMC", "value": 11.5837, "unit": "%"}
    ]},
    {"smiles": "CC[C@H](C)[C@H](N)C(=O)N[C@@H](CC(N)=O)C(=O)N[C@@H](Cc1c[nH]c2ccccc12)C(=O)N[C@@H](CCCCN)C(=O)N[C@@H](C)C(=O)N[C@@H](CC(C)C)C(=O)N[C@@H](C)C(=O)N[C@@H](C)C(=O)N[C@@H](CC(C)C)C(=O)N[C@@H](C)C(=O)N[C@@H](CCCCN)C(=O)N[C@@H](CCCCN)C(=O)N[C@H](C(=O)N[C@@H](CC(C)C)C(N)=O)[C@@H](C)CC", "note": "[W3]", "values": [
      {"measurement": "Average (percentage cell inhibition), Dmastoparan MDA-MB231 12.5uM", "setting": "MDA-MB-231 cells", "value": 65.1242, "unit": "%"},
      {"measurement": "Average (percentage cell inhibition), Mastoparan PBMC", "setting": "PBMC", "value": 22.6054, "unit": "%"}
    ]},
    {"smiles": "CC[C@H](C)[C@H](N)C(=O)N[C@@H](CC(N)=O)C(=O)N[C@@H](CC(C)C)C(=O)N[C@@H](CCCCN)C(=O)N[C@@H](C)C(=O)N[C@@H](CC(C)C)C(=O)N[C@@H](C)C(=O)N[C@@H](C)C(=O)N[C@@H](CC(C)C)C(=O)N[C@@H](C)C(=O)N[C@@H](CCCCN)C(=O)N[C@@H](CCCCN)C(=O)N[C@@H](CO)C(=O)N[C@@H](CC(C)C)C(N)=O", "note": "[S13]", "values": [
      {"measurement": "Average (percentage cell inhibition), Dmastoparan MDA-MB231 12.5uM", "setting": "MDA-MB-231 cells", "value": 39.6113, "unit": "%"},
      {"measurement": "Average (percentage cell inhibition), Mastoparan PBMC", "setting": "PBMC", "value": -6.27, "unit": "%"}
    ]}
  ]
}
